Measured values published in US20070049564A1 (Wyeth, priority 2005, published 2007).
≈ marks a conversion by molar mass, not a printed value. Read-outs that look alike come from different tables or passages of the source.

Tests used:
E. coli GC 2236 = assay: MIC, broth microdilution; conditions: Escherichia coli
E. coli GC 2231 = assay: MIC, broth microdilution; conditions: Escherichia coli
E. coli GC 2235 = assay: MIC, broth microdilution; conditions: Escherichia coli
E. coli GC 2232 = assay: MIC, broth microdilution; conditions: Escherichia coli
E. coli GC 2234 = assay: MIC, broth microdilution; conditions: Escherichia coli
E. coli GC 4559 = assay: MIC, broth microdilution; conditions: Escherichia coli
S. typhimurium GC 2172 = assay: MIC, broth microdilution; conditions: Salmonella enterica, TYPHIMURIUM
S. aureus GC 6466 = assay: MIC, broth microdilution; conditions: Staphylococcus aureus
S. aureus GC 4536 = assay: MIC, broth microdilution; conditions: Staphylococcus aureus
S. aureus GC 2216 = assay: MIC, broth microdilution; conditions: Staphylococcus aureus
E. faecalis GC 4555 = assay: MIC, broth microdilution; conditions: Enterococcus faecalis
E. faecalis GC 2242 = assay: MIC, broth microdilution; conditions: Enterococcus faecalis
E. faecium GC 4556 = assay: MIC, broth microdilution; conditions: Enterococcus faecium
S. pneumoniae* GC 4465 = assay: MIC, broth microdilution; conditions: Streptococcus pneumoniae
S. pneumoniae+ GC 4465 = assay: MIC, broth microdilution; conditions: Streptococcus pneumoniae
S. pyogenes GC 4563 = assay: MIC, broth microdilution; conditions: Streptococcus pyogenes
S. agalactiae GC 4564 = assay: MIC, broth microdilution; conditions: Streptococcus agalactiae
E. coli = assay: Range of MIC for E. coli strains; conditions: Escherichia coli
Staph. = assay: Range of MIC for Staph. strains, including MRSA; conditions: Staphylococcus aureus, MRSA
Staph. aureus Smith = assay: In vivo activity (oral, iv; ED50) against Staph. aureus Smith in mice
[1] = read-out: MINIMAL INHIBITORY CONCENTRATION MIC, pre-incubated in Mouse Serum
[2] = read-out: MINIMAL INHIBITORY CONCENTRATION MIC, pre-incubated in Water

MIC (E. coli GC 2236; GC2236, read-out: MINIMAL INHIBITORY CONCENTRATION MIC, pre-incubated in Mouse Serum): 1 µg/mL (≈ 1.19 µM)
MIC (E. coli GC 2236; GC2236, read-out: MINIMAL INHIBITORY CONCENTRATION MIC, pre-incubated in Water): > 64 µg/mL
MIC (E. coli GC 2231; GC2231, read-out: MINIMAL INHIBITORY CONCENTRATION MIC, pre-incubated in Mouse Serum): 1 µg/mL (≈ 1.19 µM)
MIC (E. coli GC 2231; GC2231, read-out: MINIMAL INHIBITORY CONCENTRATION MIC, pre-incubated in Water): > 64 µg/mL
MIC (E. coli GC 2235; GC2235, read-out: MINIMAL INHIBITORY CONCENTRATION MIC, pre-incubated in Mouse Serum): 0.5 µg/mL (≈ 0.595 µM)
MIC (E. coli GC 2235; GC2235, read-out: MINIMAL INHIBITORY CONCENTRATION MIC, pre-incubated in Water): > 64 µg/mL
MIC (E. coli GC 2232; GC2232, read-out: MINIMAL INHIBITORY CONCENTRATION MIC, pre-incubated in Mouse Serum): 1 µg/mL (≈ 1.19 µM)
MIC (E. coli GC 2232; GC2232, read-out: MINIMAL INHIBITORY CONCENTRATION MIC, pre-incubated in Water): > 64 µg/mL
MIC (E. coli GC 2234; GC2234, read-out: MINIMAL INHIBITORY CONCENTRATION MIC, pre-incubated in Mouse Serum): 0.5 µg/mL (≈ 0.595 µM)
MIC (E. coli GC 2234; GC2234, read-out: MINIMAL INHIBITORY CONCENTRATION MIC, pre-incubated in Water): > 64 µg/mL
MIC (E. coli GC 4559; GC4559, read-out: MINIMAL INHIBITORY CONCENTRATION MIC, pre-incubated in Mouse Serum): 1 µg/mL (≈ 1.19 µM)
MIC (E. coli GC 4559; GC4559, read-out: MINIMAL INHIBITORY CONCENTRATION MIC, pre-incubated in Water): > 64 µg/mL
MIC (S. typhimurium GC 2172; [1]): 4 µg/mL (≈ 4.76 µM)
MIC (S. typhimurium GC 2172; [2]): > 64 µg/mL
MIC (S. aureus GC 6466; GC6466, read-out: MINIMAL INHIBITORY CONCENTRATION MIC, pre-incubated in Mouse Serum): 1 µg/mL (≈ 1.19 µM)
MIC (S. aureus GC 6466; GC6466, read-out: MINIMAL INHIBITORY CONCENTRATION MIC, pre-incubated in Water): 64 µg/mL (≈ 76.2 µM)
MIC (S. aureus GC 4536; GC4536, read-out: MINIMAL INHIBITORY CONCENTRATION MIC, pre-incubated in Mouse Serum): 2 µg/mL (≈ 2.38 µM)
MIC (S. aureus GC 4536; GC4536, read-out: MINIMAL INHIBITORY CONCENTRATION MIC, pre-incubated in Water): 32 µg/mL (≈ 38.1 µM)
MIC (S. aureus GC 2216; GC2216, read-out: MINIMAL INHIBITORY CONCENTRATION MIC, pre-incubated in Mouse Serum): 1 µg/mL (≈ 1.19 µM)
MIC (S. aureus GC 2216; GC2216, read-out: MINIMAL INHIBITORY CONCENTRATION MIC, pre-incubated in Water): 64 µg/mL (≈ 76.2 µM)
MIC (E. faecalis GC 4555; GC4555, read-out: MINIMAL INHIBITORY CONCENTRATION MIC, pre-incubated in Mouse Serum): 1 µg/mL (≈ 1.19 µM)
MIC (E. faecalis GC 4555; GC4555, read-out: MINIMAL INHIBITORY CONCENTRATION MIC, pre-incubated in Water): 64 µg/mL (≈ 76.2 µM)
MIC (E. faecalis GC 2242; GC2242, read-out: MINIMAL INHIBITORY CONCENTRATION MIC, pre-incubated in Mouse Serum): 2 µg/mL (≈ 2.38 µM)
MIC (E. faecalis GC 2242; GC2242, read-out: MINIMAL INHIBITORY CONCENTRATION MIC, pre-incubated in Water): 32 µg/mL (≈ 38.1 µM)
MIC (E. faecium GC 4556; GC4556, read-out: MINIMAL INHIBITORY CONCENTRATION MIC, pre-incubated in Mouse Serum): 2 µg/mL (≈ 2.38 µM)
MIC (E. faecium GC 4556; GC4556, read-out: MINIMAL INHIBITORY CONCENTRATION MIC, pre-incubated in Water): 64 µg/mL (≈ 76.2 µM)
MIC (S. pneumoniae* GC 4465; [1]): 0.25 µg/mL (≈ 0.298 µM)
MIC (S. pneumoniae* GC 4465; [2]): 0.5 µg/mL (≈ 0.595 µM)
MIC (S. pneumoniae+ GC 4465; [1]): 4 µg/mL (≈ 4.76 µM)
MIC (S. pneumoniae+ GC 4465; [2]): 4 µg/mL (≈ 4.76 µM)
MIC (S. pyogenes GC 4563; GC4563, read-out: MINIMAL INHIBITORY CONCENTRATION MIC, pre-incubated in Mouse Serum): 0.25 µg/mL (≈ 0.298 µM)
MIC (S. pyogenes GC 4563; GC4563, read-out: MINIMAL INHIBITORY CONCENTRATION MIC, pre-incubated in Water): 0.12 µg/mL (≈ 0.143 µM)
MIC (S. agalactiae GC 4564; GC4564, read-out: MINIMAL INHIBITORY CONCENTRATION MIC, pre-incubated in Mouse Serum): 0.5 µg/mL (≈ 0.595 µM)
MIC (S. agalactiae GC 4564; GC4564, read-out: MINIMAL INHIBITORY CONCENTRATION MIC, pre-incubated in Water): 8 µg/mL (≈ 9.52 µM)
MIC (E. coli; 20 h, read-out: Range of MIC, E. coli (Mouse Serum)): 0.5 to 8 µg/mL (≈ 0.595 to 9.52 µM)
MIC (E. coli; read-out: Minimum inhibitory concentration (MIC), E. coli (mouse serum)): 0.5 to 8 µg/mL (≈ 0.595 to 9.52 µM)
MIC (E. coli; read-out: Minimum inhibitory concentration (MIC), E. coli (water)): > 64 µg/mL
MIC (E. coli; read-out: Range of MIC, E. coli (Water)): > 64 µg/mL
MIC (Staph.; read-out: Minimum inhibitory concentration (MIC), Staph. (mouse serum)): 1 to 4 µg/mL (≈ 1.19 to 4.76 µM)
MIC (Staph.; read-out: Range of MIC, Staph (Mouse Serum)): 1 to 4 µg/mL (≈ 1.19 to 4.76 µM)
SMILES: CCCCN(CC(=O)Nc1cc(N(C)C)c2c(c1O)C(=O)C1=C(O)[C@]3(O)C(=O)C(C(N)=O)=C(O)[C@@H](N(C)C)[C@@H]3C[C@@H]1C2)C(=O)OCOC(=O)c1ccc(-c2ccccc2)cc1 [Example 21, ({[(2-{[(5aR,6aS,7S,10aS)-9-(aminocarbonyl)-4,7-bis(dimethylamino)-1,8,10a,11-tetrahydroxy-10,12-dioxo-5,5a,6,6a,7,10,10a,12-octahydrotetracen-2-yl]amino}-2-oxoethyl)(butyl)amino]carbonyl}oxy)methyl 1,1′-biphenyl-4-carboxylate]
ED50 (Staph. aureus Smith; Staphylococcus aureus, in Mus musculus, po, read-out: ED50 Staph Smith SOD): > 32 mg/kg
ED50 (Staph. aureus Smith; iv, read-out: ED50 Staph Smith SIV): 0.77 mg/kg
